Test results: the Kinase Knowledgebase extract (Sharma et al. 2016)

target: MAPK14 (UniProt Q16539); test: Inhibition of MAPK14 Kinase Activity
Sequence (Q16539 whole entry, looked up): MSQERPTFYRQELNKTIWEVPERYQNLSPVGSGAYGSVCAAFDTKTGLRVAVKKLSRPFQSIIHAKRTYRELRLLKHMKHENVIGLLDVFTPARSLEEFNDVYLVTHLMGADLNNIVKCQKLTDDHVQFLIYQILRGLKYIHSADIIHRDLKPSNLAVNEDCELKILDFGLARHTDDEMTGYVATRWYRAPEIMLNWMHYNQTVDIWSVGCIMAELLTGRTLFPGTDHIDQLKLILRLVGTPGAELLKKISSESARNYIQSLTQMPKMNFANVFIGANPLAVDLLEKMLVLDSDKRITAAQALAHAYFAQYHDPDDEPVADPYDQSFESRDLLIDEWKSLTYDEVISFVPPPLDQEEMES

IC50, < 10 µM:
Cc1c(F)cc(C(=O)NC2CC2)cc1-c1ccc2c(cnn2S(=O)(=O)c2cccs2)c1
CCNC(=O)Cc1noc2cc(-c3cc(C(=O)NC4CC4)ccc3C)ccc12
Cc1ccc(C(=O)NC2CC2)cc1-c1ccc2c(CC(=O)N3CCOCC3)noc2c1
Cc1c(F)cc(C(=O)NC2CC2)cc1-c1ccc2c(cnn2S(=O)(=O)c2ccc(Cl)cc2)c1
Cc1ccc(C(=O)NC2CC2)cc1-c1ccc2c(cnn2S(=O)(=O)c2ccccc2)c1
Cc1c(F)cc(C(=O)NC2CC2)cc1-c1ccc2c(cnn2S(=O)(=O)Cc2ccccc2)c1
Cc1ccc(C(=O)NC2CC2)cc1-c1ccc2c(CNC(CO)CO)noc2c1
Cc1ccc(C(=O)NC2CC2)cc1-c1ccc2c(CN3CCCCC3)noc2c1
Cc1ccc(NC(=O)c2ccsc2)cc1-c1ccc2c(C3CCNCC3)noc2c1
Cc1c(F)cc(C(=O)NC2CC2)cc1-c1ccc2c(cnn2S(=O)(=O)/C=C/c2ccccc2)c1
Cc1ccc(C(=O)NC2CC2)cc1-c1ccc2c(cnn2S(=O)(=O)C(C)C)c1
Cc1ccc(C(=O)NC2CC2)cc1-c1ccc2c(cnn2CC(=O)NCc2ccccc2)c1
Cc1ccc(C(=O)NC2CC2)cc1-c1ccc2c(cnn2CC(=O)NCC2CC2)c1
Cc1ccc(C(=O)NC2CC2)cc1-c1ccc2c(cnn2S(=O)(=O)CC(F)(F)F)c1
Cc1ccc(C(=O)NC2CC2)cc1-c1ccc2c(cnn2S(=O)(=O)c2cccc(F)c2)c1
COC(=O)Cc1noc2cc(-c3cc(C(=O)NC4CC4)ccc3C)ccc12
Cc1ccc(C(=O)NC2CC2)cc1-c1ccc2c(CC(=O)N3CCCCC3)noc2c1
Cc1c(F)cc(C(=O)NC2CC2)cc1-c1ccc2c(S(C)(=O)=O)n[nH]c2c1
Cc1ccc(C(=O)NC2CC2)cc1-c1ccc2[nH]ncc2c1
Cc1ccc(C(=O)NC2CC2)cc1-c1ccc2c(CC(=O)NCCCO)noc2c1
Cc1ccc(C(=O)NC2CC2)cc1-c1ccc2c(cnn2S(=O)(=O)C2CC2)c1
Cc1ccc(C(=O)Nc2cccc(N3CCOCC3)c2)cc1-c1ccc2c(C)noc2c1
Cc1ccc(C(=O)NCC2CC2)cc1-c1ccc2c(C3CCNCC3)noc2c1
CCCNC(=O)c1noc2cc(-c3cc(C(=O)NC4CC4)cc(F)c3C)ccc12
Cc1c(F)cc(C(=O)NC2CC2)cc1-c1ccc2c(ccn2S(=O)(=O)c2ccccc2)c1
Cc1ccc(C(=O)NC2CC2)cc1-c1ccc2c(N3CCOCC3)noc2c1
Cc1c(F)cc(C(=O)NC2CC2)cc1-c1ccc2c(cnn2S(=O)(=O)c2cc(F)cc(F)c2)c1
Cc1ccc(C(=O)NC2CC2)cc1-c1ccc2c(cnn2S(C)(=O)=O)c1
Cc1c(F)cc(C(=O)NC2CC2)cc1-c1ccc2c(cnn2S(=O)(=O)c2ccc(C(C)C)cc2)c1
Cc1ccc(C(=O)NC2CC2)cc1-c1ccc2c(cnn2CC(=O)N2CCOCC2)c1
Cc1ccc(C(=O)NC2CC2)cc1-c1ccc2c(cnn2C2CCN(C(=O)OC(C)(C)C)CC2)c1
CCCc1ccc(S(=O)(=O)n2ncc3cc(-c4cc(C(=O)NC5CC5)cc(F)c4C)ccc32)cc1
Cc1c(F)cc(C(=O)NC2CC2)cc1-c1ccc2c(C(=O)N(C)C)noc2c1
COC(=O)Cn1ncc2cc(-c3cc(C(=O)NC4CC4)cc(F)c3C)ccc21
Cc1c(F)cc(C(=O)NC2CC2)cc1-c1ccc2c(cnn2S(=O)(=O)c2cc(F)ccc2F)c1
Cc1ccc(C(=O)NC2CC2)cc1-c1ccc2c(CC(=O)NC3CC3)noc2c1
Cc1ccc(S(=O)(=O)n2ccc3cc(-c4cc(C(=O)NC5CC5)cc(F)c4C)ccc32)cc1
Cc1ccc(F)cc1S(=O)(=O)n1ncc2cc(-c3cc(C(=O)NC4CC4)cc(F)c3C)ccc21
COC(=O)c1ccc(CS(=O)(=O)n2ncc3cc(-c4cc(C(=O)NC5CC5)ccc4C)ccc32)cc1
COc1ccc(S(=O)(=O)n2ncc3cc(-c4cc(C(=O)NC5CC5)ccc4C)ccc32)cc1OC
Cc1ccc(C(=O)NC2CC2)cc1-c1ccc2c(CN3CCCC3)noc2c1
Cc1ccc(C(=O)NC2CC2)cc1-c1ccc2c(CN3CCN(C)CC3)noc2c1
Cc1c(F)cc(C(=O)NC2CC2)cc1-c1ccc2c(cnn2CC(=O)NCC(C)(C)C)c1
Cc1ccc(C(=O)NC2CC2)cc1-c1ccc2c(CC(=O)N3CCNCC3)noc2c1
COc1ccc(CNC(=O)Cn2ncc3cc(-c4cc(C(=O)NC5CC5)cc(F)c4C)ccc32)cc1
Cc1c(F)cc(C(=O)NC2CC2)cc1-c1ccc2c(C(=O)NCC3CC3)noc2c1
Cc1ccc(NC(=O)c2ccsc2)cc1-c1ccc2c(C)noc2c1
Cc1ccc(C(=O)NC2CC2)cc1-c1ccc2c(cnn2CC(=O)NC(C)C)c1
Cc1c(F)cc(C(=O)NC2CC2)cc1-c1ccc2c(cnn2CC(=O)NCc2ccccc2)c1
Cc1ccc(C(=O)NC2CC2)cc1-c1ccc2c(cnn2S(=O)(=O)c2cccc(C#N)c2)c1
COc1cccc(CNC(=O)Cc2noc3cc(-c4cc(C(=O)NC5CC5)ccc4C)ccc23)c1
Cc1ccc(C(=O)NC2CC2)cc1-c1ccc2c(cnn2S(=O)(=O)c2cccc3nonc23)c1
Cc1c(F)cc(C(=O)NC2CC2)cc1-c1ccc2c(cnn2S(=O)(=O)c2cccc(Cl)c2)c1
Cc1ccc(C(=O)NC2CC2)cc1-c1ccc2cn[nH]c2c1
Cc1ccc(C(=O)NC2CC2)cc1-c1ccc2c(cnn2S(=O)(=O)c2c(C)nn(C)c2C)c1
Cc1c(F)cc(C(=O)NC2CC2)cc1-c1ccc2c(cnn2C(=O)OC(C)(C)C)c1
CCS(=O)(=O)n1ncc2cc(-c3cc(C(=O)NC4CC4)cc(F)c3C)ccc21
Cc1ccc(C(=O)NC2CC2)cc1-c1ccc2c(CC(=O)NCC3CC3)noc2c1
Cc1c(F)cc(C(=O)NC2CC2)cc1-c1ccc2c(cnn2S(=O)(=O)c2ccc(F)cc2F)c1
Cc1ccc(S(=O)(=O)n2ncc3cc(-c4cc(C(=O)NC5CC5)ccc4C)ccc32)cc1
Cc1ccc(C(=O)NC2CC2)cc1-c1ccc2c(CC(=O)Nc3nccs3)noc2c1
CNC(=O)c1ccc(CNC(=O)Cn2ncc3cc(-c4cc(C(=O)NC5CC5)cc(F)c4C)ccc32)cc1
Cc1ccc(C(=O)NC2CC2)cc1-c1ccc2c(cnn2S(=O)(=O)c2ccc3c(c2)CCO3)c1
Cc1ccc(C(=O)NC2CC2)cc1-c1ccc2c(cnn2CC2CC2)c1
Cc1c(F)cc(C(=O)NC2CC2)cc1-c1ccc2c(cnn2S(=O)(=O)c2ccccc2Cl)c1
COC(=O)c1ccc(S(=O)(=O)n2ncc3cc(-c4cc(C(=O)NC5CC5)ccc4C)ccc32)o1
Cc1ccc(C(=O)NC2CC2)cc1-c1ccc2c(CC(=O)N3CCCC3)noc2c1
Cc1c(F)cc(C(=O)NC2CC2)cc1-c1ccc2c(cnn2CC(=O)N2CCOCC2)c1
Cc1c(F)cc(C(=O)NC2CC2)cc1-c1ccc2c(cnn2S(=O)(=O)c2cn(C)c(C)n2)c1
CCS(=O)(=O)n1ncc2cc(-c3cc(C(=O)NC4CC4)ccc3C)ccc21
Cc1ccc(C(=O)NC2CC2)cc1-c1ccc2nc(NC(=O)C3CC3)sc2c1
CCCCCCCCS(=O)(=O)n1ncc2cc(-c3cc(C(=O)NC4CC4)cc(F)c3C)ccc21
Cc1c(F)cc(C(=O)NC2CC2)cc1-c1ccc2c(cnn2S(=O)(=O)C(C)C)c1
Cc1ccc(C(=O)NC2CC2)cc1-c1ccc2c(cnn2S(=O)(=O)c2ccc(-c3ccon3)s2)c1
Cc1c(F)cc(C(=O)NC2CC2)cc1-c1ccc2c(NC3CC3)noc2c1
CCCS(=O)(=O)n1ncc2cc(-c3cc(C(=O)NC4CC4)cc(F)c3C)ccc21
Cc1ccc(C(=O)NC2CC2)cc1-c1ccc2c(N3CCNCC3)noc2c1
Cc1ccc(CNC(=O)Cn2ncc3cc(-c4cc(C(=O)NC5CC5)ccc4C)ccc32)cc1
Cc1ccc(C(=O)NC2CC2)cc1-c1ccc2c(cnn2S(=O)(=O)c2ccc(F)cc2)c1
Cc1ccc(C(=O)NC2CC2)cc1-c1ccc2c(cnn2S(=O)(=O)c2ccccc2C#N)c1
Cc1ccc(C(=O)NC2CC2)cc1-c1ccc2c(cnn2C2CCNCC2)c1
Cc1cccc(S(=O)(=O)n2ncc3cc(-c4cc(C(=O)NC5CC5)cc(F)c4C)ccc32)c1
Cc1c(F)cc(C(=O)NC2CC2)cc1-c1ccc2c(cnn2S(=O)(=O)c2ccc(Cl)s2)c1
Cc1ccc(C(=O)NC2CC2)cc1-c1ccc2c(cnn2S(=O)(=O)c2cn(C)cn2)c1
Cc1ccc(C(=O)NC2CC2)cc1-c1ccc2c(N)noc2c1
Cc1ccc(NC(=O)c2ccoc2)cc1-c1ccc2c(C)noc2c1
